Assay results reported in patent US20060069132A1, “Azolecarboxamide herbicides” (priority 2004, published 2006).

Experiments:
rice [1] = assay: Test B pre-/postemergence herbicide test; assay type: in vivo, Oryza sativa; settings: preemergence
Procedure, shortened: (§1)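 Seeds were planted and treated preemergence with compounds formulated in a non-phytotoxic solvent mixture containing surfactant, while plants at the 1- to 4-leaf stage (2 to 18 cm) received postemergence sprays. Flooded paddy plants were grown to the 2-leaf stage. After 13 to 15 days in a greenhouse, injury was visually rated 0–100 against untreated controls.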

barnyardgrass [2] = assay: Test C flooded paddy test; assay type: in vivo, Echinochloa crus-galli
Procedure, shortened: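 Weeds and wheat were sprayed after emergence, at a height of 2 to 18 cm (1–4 leaves), and paddy barnyardgrass was flooded and treated at two leaves. Assessment took place 12–14 days later in the greenhouse on a 0-to-100 visual control scale. A dash means no result was obtained.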

pigweed = assay: Test B pre-/postemergence herbicide test; assay type: in vivo, Amaranthus retroflexus; settings: for Plant response rating, Pigweed: preemergence; for Pigweed plant response rating: postemergence, visual rating, scale 0 (no effect) to 100 (complete control)
Procedure, shortened: as §1

cocklebur = assay: Test B pre-/postemergence herbicide test; assay type: in vivo, Xanthium strumarium; settings: for Plant response rating, Cocklebur: preemergence; for Cocklebur plant response rating: postemergence, visual rating, scale 0 (no effect) to 100 (complete control)
Procedure, shortened: (§2)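 Response was scored visually 13 to 15 days after treatment against untreated greenhouse controls, 0 meaning no effect and 100 complete control. Formulations (solvent mixture plus surfactant) went onto soil after planting, onto foliage of 1- to 4-leaf plants, and onto 2-leaf plants in a flooded paddy set including rice and barnyardgrass.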

[3] = test system: small flower umbrella sedge; assay: Test B flooded paddy test; assay type: in vivo, Cyperus difformis; settings: 1000 g ai/ha, visual rating, scale 0 to 100 (0 no effect, 100 complete control), 13 to 15 days
Procedure, shortened: (§3)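 Visual control ratings, 0–100 versus untreated controls, taken after 13 to 15 days in the greenhouse. Blackgrass received a postemergence spray at the 1- to 4-leaf stage (2–18 cm); ducksalad, umbrella sedge and barnyardgrass were flooded-paddy treated at 2 leaves.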

morningglory = assay: Test B pre-/postemergence herbicide test; assay type: in vivo, Ipomoea coccinea; settings: for Plant response rating, Morningglory: preemergence; for Morningglory plant response rating: postemergence, visual rating, scale 0 (no effect) to 100 (complete control)
Procedure, shortened: as §2

barnyardgrass [4] = assay: Test B pre-/postemergence herbicide test; assay type: in vivo, Echinochloa crus-galli; settings: for Plant response rating, Barnyardgrass: preemergence; for Barnyardgrass plant response rating: postemergence, visual rating, scale 0 (no effect) to 100 (complete control)
Procedure, shortened: as §2

rice [5] = assay: Test C flooded paddy test; assay type: in vivo, Oryza sativa
Procedure, shortened: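 Injury scored visually against controls on a 0 (no effect) to 100 (complete control) scale, 12 to 14 days after treatment in greenhouse. Flooded paddy plants treated at 2-leaf stage; postemergence plants at 1- to 4-leaf stage, 2 to 18 cm tall.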

blackgrass = assay: Test B postemergence herbicide test; assay type: in vivo, Alopecurus myosuroides; settings: postemergence, visual rating, scale 0 (no effect) to 100 (complete control)
Procedure, shortened: as §3

corn = assay: Test B pre-/postemergence herbicide test; assay type: in vivo, Zea mays; settings: for Plant response rating, Corn: preemergence; for Corn plant response rating: postemergence, visual rating, scale 0 (no effect) to 100 (complete control)
Procedure, shortened: as §1

[6] = test system: smallflower umbrella sedge; assay: Test C flooded paddy test; assay type: in vivo, Cyperus difformis
large crabgrass = assay: Test B pre-/postemergence herbicide test; assay type: in vivo, Digitaria sanguinalis; settings: for Plant response rating, Crabgrass, Large: preemergence; for Crabgrass, Large plant response rating: postemergence, visual rating, scale 0 (no effect) to 100 (complete control)
Procedure, shortened: as §1

ducksalad [7] = assay: Test C flooded paddy test; assay type: in vivo, Heteranthera limosa
barnyardgrass [8] = assay: Test B flooded paddy test; assay type: in vivo, Echinochloa crus-galli; settings: 1000 g ai/ha, visual rating, scale 0 to 100 (0 no effect, 100 complete control), 13 to 15 days
Procedure, shortened: as §3

lambsquarters = assay: Test B pre-/postemergence herbicide test; assay type: in vivo, Chenopodium album; settings: for Plant response rating, Lambsquarters: preemergence; for Lambsquarters plant response rating: postemergence, visual rating, scale 0 (no effect) to 100 (complete control)
Procedure, shortened: as §1

ducksalad [9] = assay: Test B flooded paddy test; assay type: in vivo, Heteranthera limosa; settings: 1000 g ai/ha, visual rating, scale 0 to 100 (0 no effect, 100 complete control), 13 to 15 days
Procedure, shortened: as §3

Surinam grass = assay: Test B pre-/postemergence herbicide test; assay type: in vivo, Urochloa decumbens; settings: for Plant response rating, Surinam Grass: preemergence; for Surinam Grass plant response rating: postemergence, visual rating, scale 0 (no effect) to 100 (complete control)
Procedure, shortened: as §1

wheat = assay: Test B postemergence herbicide test; assay type: in vivo, Triticum aestivum; set-up: key to Wheat plant response rating: 0 = no effect, 100 = complete control; settings: postemergence, 500 g ai/ha; visual rating, scale 0 (no effect) to 100 (complete control)
Procedure, shortened: (§4)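 After treating 2-leaf paddy plants or 2–18 cm postemergence plants (1 to 4 leaves) with formulated chemical, researchers kept them in a greenhouse for 13–15 days. Effects were judged visually versus controls: 0 indicates none, 100 total control.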

rice [10] = assay: Test B flooded paddy test; assay type: in vivo, Oryza sativa; settings: 1000 g ai/ha, visual rating, scale 0 to 100 (0 no effect, 100 complete control), 13 to 15 days
Procedure, shortened: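 Visual ratings, 0 (no effect) to 100 (complete control), made versus controls after 13–15 d greenhouse. Paddy plants treated at 2-leaf stage; postemergence plants at 1- to 4-leaf stage, 2–18 cm tall.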

wild oat = assay: Test B postemergence herbicide test; assay type: in vivo, Avena fatua; settings: postemergence, visual rating, scale 0 (no effect) to 100 (complete control)
Procedure, shortened: as §4

velvetleaf = assay: Test B pre-/postemergence herbicide test; assay type: in vivo, Abutilon theophrasti; settings: for Plant response rating, Velvetleaf: preemergence; for Velvetleaf plant response rating: postemergence, visual rating, scale 0 (no effect) to 100 (complete control)
Procedure, shortened: as §1

giant foxtail = assay: Test B pre-/postemergence herbicide test; assay type: in vivo, Setaria faberi; settings: for Plant response rating, Foxtail, Giant: preemergence; for Foxtail, Giant plant response rating: postemergence, visual rating, scale 0 (no effect) to 100 (complete control)
Procedure, shortened: as §1

[11] = 500 g ai/ha, visual rating 0-100, 0 no effect, 100 complete control
[12] = 125 g ai/ha, 0 to 100 scale, 0 is no effect, 100 is complete control
[13] = 62 g ai/ha, scale 0 to 100 (0 no effect, 100 complete control)
[14] = 250 g ai/ha, scale of 0 to 100, 0 is no effect, 100 is complete control
[15] = 500 g ai/ha, visual rating after 12 to 14 days, scale 0 to 100 (0 no effect, 100 complete control)
[16] = 125 g ai/ha, scale 0 to 100 (0 no effect, 100 complete control)

CCn1nc(C(C)(C)C)cc1C(=O)Nc1cccc(C(=O)N(C)CC#N)n1 [Compound 158]
Plant response rating, Rice (rice [1]; [11]): 90
Plant response rating, Rice (rice [1]; [12]): 80
Barnyardgrass plant response rating (barnyardgrass [2]; [13]): 0
Barnyardgrass plant response rating (barnyardgrass [2]; 125 g ai/ha, scale of 0 to 100, 0 is no effect, 100 is complete control): 0
Barnyardgrass plant response rating (barnyardgrass [2]; [14]): 15
Plant response rating, Barnyardgrass (barnyardgrass [2]; [15]): 35
Plant response rating, Pigweed (pigweed; [11]): 100
Pigweed plant response rating (pigweed; 125 g ai/ha): 50
Pigweed plant response rating (pigweed; 500 g ai/ha): 70
Plant response rating, Pigweed (pigweed; [12]): 100
Plant response rating, Cocklebur (cocklebur; [11]): 40
Cocklebur plant response rating (cocklebur; 125 g ai/ha): 20
Cocklebur plant response rating (cocklebur; 500 g ai/ha): 70
Plant response rating, Cocklebur (cocklebur; [12]): 40
Sedge, Umbrella plant response rating [3]: 80
Plant response rating, Morningglory (morningglory; [11]): 50
Morningglory plant response rating (morningglory; 125 g ai/ha): 0
Morningglory plant response rating (morningglory; 500 g ai/ha): 50
Plant response rating, Morningglory (morningglory; [12]): 50
Plant response rating, Barnyardgrass (barnyardgrass [4]; [11]): 100
Barnyardgrass plant response rating (barnyardgrass [4]; 125 g ai/ha): 0
Barnyardgrass plant response rating (barnyardgrass [4]; 500 g ai/ha): 0
Plant response rating, Barnyardgrass (barnyardgrass [4]; [12]): 70
Rice plant response rating (rice [5]; [13]): 0
Rice plant response rating (rice [5]; [16]): 0
Rice plant response rating (rice [5]; [14]): 35
Plant response rating, Rice (rice [5]; [15]): 60
Blackgrass plant response rating (blackgrass; 125 g ai/ha): 20
Blackgrass plant response rating (blackgrass; 500 g ai/ha): 30
Plant response rating, Corn (corn; [11]): 60
Corn plant response rating (corn; 125 g ai/ha): 0
Corn plant response rating (corn; 500 g ai/ha): 10
Plant response rating, Corn (corn; [12]): 0
Sedge, Umbrella plant response rating [6, 13]: 15
Sedge, Umbrella plant response rating [6, 16]: 45
Sedge, Umbrella plant response rating [6, 14]: 70
Plant response rating, Sedge, Umbrella [6, 15]: 80
Plant response rating, Crabgrass, Large (large crabgrass; [11]): 100
Crabgrass, Large plant response rating (large crabgrass; 125 g ai/ha): 30
Crabgrass, Large plant response rating (large crabgrass; 500 g ai/ha): 30
Plant response rating, Crabgrass, Large (large crabgrass; [12]): 80
Ducksalad plant response rating (ducksalad [7]; [13]): 0
Ducksalad plant response rating (ducksalad [7]; [16]): 0
Ducksalad plant response rating (ducksalad [7]; [14]): 20
Plant response rating, Ducksalad (ducksalad [7]; [15]): 50
Barnyardgrass plant response rating (barnyardgrass [8]): 70
Plant response rating, Lambsquarters (lambsquarters; [11]): 100
Lambsquarters plant response rating (lambsquarters; 125 g ai/ha): 80
Lambsquarters plant response rating (lambsquarters; 500 g ai/ha): 80
Plant response rating, Lambsquarters (lambsquarters; [12]): 70
Ducksalad plant response rating (ducksalad [9]): 90
Plant response rating, Surinam Grass (Surinam grass; [11]): 90
Surinam Grass plant response rating (Surinam grass; 125 g ai/ha): 0
Surinam Grass plant response rating (Surinam grass; 500 g ai/ha): 0
Plant response rating, Surinam Grass (Surinam grass; [12]): 30
Wheat plant response rating (wheat): 10
Rice plant response rating (rice [10]): 60
Oat, Wild plant response rating (wild oat; 125 g ai/ha): 30
Oat, Wild plant response rating (wild oat; 500 g ai/ha): 40
Plant response rating, Velvetleaf (velvetleaf; [11]): 80
Velvetleaf plant response rating (velvetleaf; 125 g ai/ha): 50
Velvetleaf plant response rating (velvetleaf; 500 g ai/ha): 50
Plant response rating, Velvetleaf (velvetleaf; [12]): 50
Plant response rating, Foxtail, Giant (giant foxtail; [11]): 100
Foxtail, Giant plant response rating (giant foxtail; 125 g ai/ha): 0
Foxtail, Giant plant response rating (giant foxtail; 500 g ai/ha): 30
Plant response rating, Foxtail, Giant (giant foxtail; [12]): 50
